# Tests used:
# [1] = system: CM-luxAB/CDEF cardiomyocytes; experiment: Cardiotoxicity reporting by CM-luxAB/CDEF line, autobioluminescent output after 24 hours; type: cell-based; settings: Homo sapiens, Cardiomyocyte, 24 hours of treatment
# Description: The autobioluminescent CM-luxAB/CDEF line was treated with a range of doxorubicin (uM) concentrations, and autobioluminescent output was measured after 24 hours of treatment.
# The CM-luxAB/CDEF line was treated with a range of doxorubicin concentrations, and the autobioluminescent output was measured after twenty-four (24) hours of treatment. The percent change in average radiance (p/s/cm^2/sr) relative to control was plotted against the corresponding doxorubicin (uM) treatment.
# [2] = system: iPSC-derived cardiomyocytes (CMs); experiment: Doxorubicin exposure of cardiomyocytes differentiated from tet-luxCDABEF/tTA iPSCs, autobioluminescence imaging; type: cell-based; settings: Homo sapiens, Cardiomyocyte, 18 hours exposure prior to imaging, read-out: estimated EC50
# Description: FIG. 16. Human induced pluripotent stem cells (iPSCs) bearing genomically integrated polycistronic lux operon (luxCDABEF) under control of the tetracycline responsive promoter (tet-luxCDABEF) and a separately integrated CBA-driven transactivator (tTA) were differentiated into cardiomyocytes (CMs). After maturation for approximately 1.5 weeks, the CMs were subjected to doxorubicin exposure. CMs were exposed to doxorubicin at the indicated range of concentrations for 18 hours prior to imaging.
# [3] = system: CM-luxAB/CDEF cardiomyocytes; experiment: Continuous cardiotoxicity monitoring with CM-luxAB/CDEF cardiomyocytes over 30 hours
# iPSC-luxAB/CDEF cells = experiment: Compound toxicity tracking in iPSC-luxAB/CDEF line by autonomous luminescent output and MTT; type: cell-based, Human; settings: range of concentrations, 24 hours
# Description: First, iPSC-luxAB/CDEF cells were seeded in a volume of medium in two separate multi-well plates. Identical platings of untransfected cells were made along with platings of medium to serve as positive and negative controls. For the first plate, the cells were subjected to increasing concentrations of the cytotoxic compound doxorubin. For the second plate, the cells were subjected to increasing concentrations of the cytotoxic compound rotenone. The cells were then incubated under standard growth conditions for twenty four (24) hours. After this time period, the plates was imaged for luminescent output. Bioluminescent readings were obtained using a Synergyll plate reader (BioTek).
# Following this reading, the plates were subjected to viability analysis using the MTT assay according to the manufacturer's instructions. MTT assay values were obtained as absorbance values at 570 nm using a Synergyll plate reader (BioTek) and reported as percentage of absorbance relative to untreated control cells. For all measurements, the background absorbance values derived from the medium only controls were subtracted to provide background corrected averages. Absorbance values from each treatment level were averaged, and the average values for each of the plates were used to determine standard errors of the mean for each assay.
smiles,measurement,setting,value
COc1cccc2c1C(=O)c1c(O)c3c(c(O)c1C2=O)C[C@@](O)(C(=O)CO)C[C@@H]3O[C@H]1C[C@H](N)[C@H](O)[C@H](C)O1 [doxorubicin],IC50,[1],290 nM
same,EC50,[2],410 to 740 nM
same,time of exposure at which the IC50 stabilizes,"[3]; kinetic IC50 values over time course, measured every 10 minutes",~30 h
same,autobioluminescent output with increasing concentrations,"[3]; real time monitoring, 25 hours after addition",decreasing autobioluminescent output
same,change of autonomous luminescent signal output indicative of cellular viability,iPSC-luxAB/CDEF cells,dose dependent changes

# Reference: patent US11046962B2, “Lux expression in cells and methods of use” (490 BioTech, Inc., priority 2019, dated 2021)
